According to ChEMBL document CHEMBL5678816, “A Next-Generation TRK Kinase Inhibitor Overcomes Acquired Resistance to Prior TRK Kinase Inhibition in Patients with TRK Fusion-Positive Solid Tumors” (Cancer Discov, 2017):
Calls of active or inactive are those of the source. No cut-off for these calls is given here.

Tests used:
[1] = target: Calcium/calmodulin-dependent protein kinase type II subunit delta (Homo sapiens) (UniProt Q13557); assay: Inhibition of CAMK2d (unknown origin) at 1 uM in presence of ATP relative to control; values are per cent of control
Chain of Calcium/calmodulin-dependent protein kinase type II subunit delta (Homo sapiens) (Q13557 whole entry): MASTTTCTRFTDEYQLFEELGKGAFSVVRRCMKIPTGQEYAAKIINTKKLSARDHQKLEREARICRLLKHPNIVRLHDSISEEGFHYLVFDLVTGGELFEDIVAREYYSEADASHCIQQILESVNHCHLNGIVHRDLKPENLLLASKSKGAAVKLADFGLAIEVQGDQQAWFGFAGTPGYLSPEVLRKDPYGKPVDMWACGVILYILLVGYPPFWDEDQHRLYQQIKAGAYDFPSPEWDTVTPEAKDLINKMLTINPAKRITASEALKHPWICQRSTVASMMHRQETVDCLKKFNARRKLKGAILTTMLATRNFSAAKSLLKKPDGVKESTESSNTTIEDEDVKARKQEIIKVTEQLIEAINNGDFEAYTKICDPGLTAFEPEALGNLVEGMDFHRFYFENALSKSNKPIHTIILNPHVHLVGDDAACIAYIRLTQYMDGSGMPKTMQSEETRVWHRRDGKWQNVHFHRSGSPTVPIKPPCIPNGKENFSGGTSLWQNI

[2] = AUC in pediatric patient with recurrent ETV6-NTRK3-rearranged infantile fibrosarcoma at 20 mg administered twice a day as liquid formulation for 1 day by LC-MS/MS analysis; type: ADME; conditions: human, in vivo
[3] = target: Serine/threonine-protein kinase MRCK alpha (Homo sapiens) (UniProt Q5VT25); assay: Inhibition of MRCKalpha (unknown origin) at 1 uM in presence of ATP relative to control; values are per cent of control
[4] = target: Cytoplasmic tyrosine-protein kinase BMX (Homo sapiens) (UniProt P51813); assay: Inhibition of Bmx (unknown origin) at 1 uM in presence of ATP relative to control
AU565 = assay: Inhibition of cell proliferation in human AU565 cells upto 10 umol/L incubated for 72 hrs by DAPI staining based analysis; type: functional; conditions: dose <= 10.0 µmol/L
SK-N-DZ = assay: Inhibition of cell proliferation in human SK-N-DZ cells upto 10 umol/L incubated for 72 hrs by DAPI staining based analysis; type: functional; conditions: dose <= 10.0 µmol/L
[5] = target: Ephrin type-A receptor 8 (Homo sapiens) (UniProt P29322); assay: Inhibition of EphA8 (unknown origin) at 1 uM in presence of ATP relative to control; values are per cent of control
Chain of Ephrin type-A receptor 8 (Homo sapiens) (P29322 whole entry): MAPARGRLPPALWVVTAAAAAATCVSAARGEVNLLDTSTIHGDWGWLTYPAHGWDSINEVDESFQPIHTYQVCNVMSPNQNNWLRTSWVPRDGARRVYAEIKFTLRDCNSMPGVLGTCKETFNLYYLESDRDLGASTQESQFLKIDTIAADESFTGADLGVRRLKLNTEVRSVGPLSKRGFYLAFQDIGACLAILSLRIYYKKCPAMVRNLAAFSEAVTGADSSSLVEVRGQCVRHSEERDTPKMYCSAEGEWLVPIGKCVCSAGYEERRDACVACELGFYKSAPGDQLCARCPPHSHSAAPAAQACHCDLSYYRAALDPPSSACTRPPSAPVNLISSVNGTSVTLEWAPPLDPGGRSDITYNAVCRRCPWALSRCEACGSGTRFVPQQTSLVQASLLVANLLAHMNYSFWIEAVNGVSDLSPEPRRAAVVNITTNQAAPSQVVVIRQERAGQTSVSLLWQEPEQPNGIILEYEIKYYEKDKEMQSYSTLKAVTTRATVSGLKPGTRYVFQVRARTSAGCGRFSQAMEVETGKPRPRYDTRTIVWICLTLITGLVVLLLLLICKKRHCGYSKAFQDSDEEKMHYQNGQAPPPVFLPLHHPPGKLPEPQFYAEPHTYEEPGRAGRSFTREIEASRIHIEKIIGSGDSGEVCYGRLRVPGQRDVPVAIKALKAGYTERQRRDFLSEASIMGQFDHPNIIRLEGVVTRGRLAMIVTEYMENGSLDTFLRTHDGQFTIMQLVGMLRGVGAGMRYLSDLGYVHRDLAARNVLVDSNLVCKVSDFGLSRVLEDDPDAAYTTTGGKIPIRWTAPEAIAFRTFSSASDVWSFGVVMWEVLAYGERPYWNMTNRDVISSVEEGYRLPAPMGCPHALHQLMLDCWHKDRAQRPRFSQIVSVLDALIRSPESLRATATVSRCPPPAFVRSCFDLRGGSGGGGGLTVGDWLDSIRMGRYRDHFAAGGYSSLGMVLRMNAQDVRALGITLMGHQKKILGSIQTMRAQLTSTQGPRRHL

[6] = target: Serine/threonine-protein kinase D2 (Homo sapiens) (UniProt Q9BZL6); assay: Inhibition of PKD2 (unknown origin) at 1 uM in presence of ATP relative to control; values are per cent of control
Chain of Serine/threonine-protein kinase D2 (Homo sapiens) (Q9BZL6 whole entry): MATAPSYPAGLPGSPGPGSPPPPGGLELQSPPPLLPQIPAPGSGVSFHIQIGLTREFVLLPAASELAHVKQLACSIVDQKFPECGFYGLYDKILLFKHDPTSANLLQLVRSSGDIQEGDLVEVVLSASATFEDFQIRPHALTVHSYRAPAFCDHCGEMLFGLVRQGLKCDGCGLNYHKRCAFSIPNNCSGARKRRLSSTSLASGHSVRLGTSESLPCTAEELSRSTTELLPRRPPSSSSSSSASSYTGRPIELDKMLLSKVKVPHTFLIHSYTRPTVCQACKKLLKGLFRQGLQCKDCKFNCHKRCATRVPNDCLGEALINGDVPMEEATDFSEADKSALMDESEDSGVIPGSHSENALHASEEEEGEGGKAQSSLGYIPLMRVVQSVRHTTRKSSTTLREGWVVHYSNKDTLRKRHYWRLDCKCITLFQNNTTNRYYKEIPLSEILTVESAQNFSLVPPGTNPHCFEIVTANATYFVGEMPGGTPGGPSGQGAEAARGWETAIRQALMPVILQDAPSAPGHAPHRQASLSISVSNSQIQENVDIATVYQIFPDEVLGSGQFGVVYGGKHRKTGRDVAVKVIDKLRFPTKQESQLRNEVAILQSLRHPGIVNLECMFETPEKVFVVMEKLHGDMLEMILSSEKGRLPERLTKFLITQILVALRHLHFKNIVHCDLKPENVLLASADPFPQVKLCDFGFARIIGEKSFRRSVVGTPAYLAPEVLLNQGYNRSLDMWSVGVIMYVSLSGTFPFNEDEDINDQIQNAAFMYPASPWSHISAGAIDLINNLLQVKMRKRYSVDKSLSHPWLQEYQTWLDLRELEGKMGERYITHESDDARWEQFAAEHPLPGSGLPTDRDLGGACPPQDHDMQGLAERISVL

HT-1376 = assay: Inhibition of cell proliferation in human HT-1376 cells upto 10 umol/L incubated for 72 hrs by DAPI staining based analysis; type: functional; conditions: dose <= 10.0 µmol/L
[7] = target: Ribosomal protein S6 kinase alpha-5 (Homo sapiens) (UniProt O75582); assay: Inhibition of MSK1 (unknown origin) at 1 uM in presence of ATP relative to control; values are per cent of control
[8] = target: Testis-specific serine/threonine-protein kinase 2 (Homo sapiens) (UniProt Q96PF2); assay: Inhibition of TSSK2 (unknown origin) at 1 uM in presence of ATP relative to control; values are per cent of control
[9] = target: Eukaryotic elongation factor 2 kinase (Homo sapiens) (UniProt O00418); assay: Inhibition of eEF-2K (unknown origin) at 1 uM in presence of ATP relative to control; values are per cent of control
[10] = target: Tyrosine-protein kinase ABL2 (Homo sapiens) (UniProt P42684); assay: Inhibition of Abl2 (unknown origin) at 1 uM in presence of ATP relative to control; values are per cent of control
[11] = target: cGMP-dependent protein kinase 1 (Homo sapiens) (UniProt Q13976); assay: Inhibition of PRKG1alpha (unknown origin) at 1 uM in presence of ATP relative to control; values are per cent of control
[12] = target: Serine/threonine-protein kinase TAO3 (Homo sapiens) (UniProt Q9H2K8); assay: Inhibition of TAO3 (unknown origin) at 1 uM in presence of ATP relative to control; values are per cent of control
KM12 = assay: Antitumor activity against human KM12 cells harboring TPM3-TRKA fusion protein xenografted in nu/nu NCr mouse assessed as inhibition of tumor growth at 30 to 300 mg/kg, po administered twice daily for 11 days; type: functional, organism-based; conditions: dose 30-300 mg/kg, time 11.0 day
[13] = target: Serine/threonine-protein kinase 10 (Homo sapiens) (UniProt O94804); assay: Inhibition of LOK (unknown origin) at 1 uM in presence of ATP relative to control; values are per cent of control
Chain of Serine/threonine-protein kinase 10 (Homo sapiens) (O94804 whole entry, looked up): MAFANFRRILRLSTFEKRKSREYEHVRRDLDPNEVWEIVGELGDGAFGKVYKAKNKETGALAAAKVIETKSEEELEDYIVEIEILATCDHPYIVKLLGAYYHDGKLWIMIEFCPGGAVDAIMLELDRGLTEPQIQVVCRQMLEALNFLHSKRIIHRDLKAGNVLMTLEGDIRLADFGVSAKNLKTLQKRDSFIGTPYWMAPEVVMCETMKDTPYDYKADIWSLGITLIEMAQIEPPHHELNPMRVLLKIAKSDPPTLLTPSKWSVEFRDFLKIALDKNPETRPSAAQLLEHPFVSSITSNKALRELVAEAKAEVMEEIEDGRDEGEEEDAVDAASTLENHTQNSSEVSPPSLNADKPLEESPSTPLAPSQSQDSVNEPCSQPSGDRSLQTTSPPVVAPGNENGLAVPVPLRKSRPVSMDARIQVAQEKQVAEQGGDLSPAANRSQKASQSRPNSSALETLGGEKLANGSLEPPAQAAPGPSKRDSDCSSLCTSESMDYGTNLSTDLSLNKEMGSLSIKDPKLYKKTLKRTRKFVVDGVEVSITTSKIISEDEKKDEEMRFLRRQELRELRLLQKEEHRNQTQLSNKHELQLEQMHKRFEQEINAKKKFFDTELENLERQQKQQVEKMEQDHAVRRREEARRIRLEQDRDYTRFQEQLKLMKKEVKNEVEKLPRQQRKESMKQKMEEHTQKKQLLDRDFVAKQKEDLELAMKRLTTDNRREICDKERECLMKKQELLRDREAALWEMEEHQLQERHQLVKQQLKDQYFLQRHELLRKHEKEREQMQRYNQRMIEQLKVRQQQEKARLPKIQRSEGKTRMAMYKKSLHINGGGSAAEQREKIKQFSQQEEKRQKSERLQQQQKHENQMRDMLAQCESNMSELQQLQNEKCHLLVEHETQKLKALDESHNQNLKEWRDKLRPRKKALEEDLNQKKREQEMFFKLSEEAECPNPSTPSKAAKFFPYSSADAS

[14] = target: Serine/threonine-protein kinase PAK 2 (Homo sapiens) (UniProt Q13177); assay: Inhibition of PAK2 (unknown origin) at 1 uM in presence of ATP relative to control; values are per cent of control
KPL-1 = assay: Inhibition of cell proliferation in human KPL-1 cells upto 10 umol/L incubated for 72 hrs by DAPI staining based analysis; type: functional; conditions: dose <= 10.0 µmol/L
[15] = target: Proto-oncogene tyrosine-protein kinase ROS (Homo sapiens) (UniProt P08922); assay: Inhibition of Ros (unknown origin) at 1 uM in presence of ATP relative to control
[16] = target: Ribosomal protein S6 kinase alpha-2 (Homo sapiens) (UniProt Q15349); assay: Inhibition of Rsk3 (unknown origin) at 1 uM in presence of ATP relative to control; values are per cent of control
Chain of Ribosomal protein S6 kinase alpha-2 (Homo sapiens) (Q15349 whole entry): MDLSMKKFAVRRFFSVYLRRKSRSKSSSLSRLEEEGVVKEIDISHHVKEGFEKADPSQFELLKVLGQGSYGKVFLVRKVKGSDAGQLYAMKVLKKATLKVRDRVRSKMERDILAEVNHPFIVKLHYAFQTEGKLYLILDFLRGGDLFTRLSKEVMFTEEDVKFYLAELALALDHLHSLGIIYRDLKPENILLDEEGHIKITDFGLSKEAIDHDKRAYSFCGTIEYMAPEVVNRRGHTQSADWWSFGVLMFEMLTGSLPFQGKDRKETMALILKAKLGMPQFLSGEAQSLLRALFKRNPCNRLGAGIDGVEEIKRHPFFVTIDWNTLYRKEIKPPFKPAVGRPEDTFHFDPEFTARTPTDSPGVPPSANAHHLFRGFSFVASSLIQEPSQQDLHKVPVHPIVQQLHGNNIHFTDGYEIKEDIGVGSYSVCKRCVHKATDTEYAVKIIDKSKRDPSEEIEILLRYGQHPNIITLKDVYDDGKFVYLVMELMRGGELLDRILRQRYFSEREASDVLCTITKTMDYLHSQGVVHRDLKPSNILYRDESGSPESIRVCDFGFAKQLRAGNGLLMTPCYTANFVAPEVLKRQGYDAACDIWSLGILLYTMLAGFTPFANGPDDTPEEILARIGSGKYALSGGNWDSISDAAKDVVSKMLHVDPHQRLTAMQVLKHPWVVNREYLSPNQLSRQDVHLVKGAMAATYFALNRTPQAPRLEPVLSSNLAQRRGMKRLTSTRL

[17] = target: Serine/threonine-protein kinase Nek11 (Homo sapiens) (UniProt Q8NG66); assay: Inhibition of NEK11 (unknown origin) at 1 uM in presence of ATP relative to control; values are per cent of control
[18] = target: Serine/threonine-protein kinase 24 (Homo sapiens) (UniProt Q9Y6E0); assay: Inhibition of MST3 (unknown origin) at 1 uM in presence of ATP relative to control; values are per cent of control
Chain of Serine/threonine-protein kinase 24 (Homo sapiens) (Q9Y6E0 whole entry, looked up): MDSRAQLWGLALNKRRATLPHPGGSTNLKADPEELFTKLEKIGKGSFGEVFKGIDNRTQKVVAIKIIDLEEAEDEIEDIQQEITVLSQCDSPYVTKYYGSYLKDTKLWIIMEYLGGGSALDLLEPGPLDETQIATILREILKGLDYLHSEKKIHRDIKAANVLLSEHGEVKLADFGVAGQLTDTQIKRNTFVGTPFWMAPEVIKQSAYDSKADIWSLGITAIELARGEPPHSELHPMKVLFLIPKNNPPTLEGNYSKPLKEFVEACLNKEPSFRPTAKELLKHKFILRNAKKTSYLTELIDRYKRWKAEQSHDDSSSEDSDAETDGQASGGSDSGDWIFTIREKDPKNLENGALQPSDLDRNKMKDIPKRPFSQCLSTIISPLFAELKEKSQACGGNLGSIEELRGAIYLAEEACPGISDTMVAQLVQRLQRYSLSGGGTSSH

SH-4 = assay: Inhibition of cell proliferation in human SH-4 cells upto 10 umol/L incubated for 72 hrs by DAPI staining based analysis; type: functional; conditions: dose <= 10.0 µmol/L
[19] = target: Testis-specific serine/threonine-protein kinase 1 (Homo sapiens) (UniProt Q9BXA7); assay: Inhibition of TSSK1 (unknown origin) at 1 uM in presence of ATP relative to control; values are per cent of control
Chain of Testis-specific serine/threonine-protein kinase 1 (Homo sapiens) (Q9BXA7 whole entry): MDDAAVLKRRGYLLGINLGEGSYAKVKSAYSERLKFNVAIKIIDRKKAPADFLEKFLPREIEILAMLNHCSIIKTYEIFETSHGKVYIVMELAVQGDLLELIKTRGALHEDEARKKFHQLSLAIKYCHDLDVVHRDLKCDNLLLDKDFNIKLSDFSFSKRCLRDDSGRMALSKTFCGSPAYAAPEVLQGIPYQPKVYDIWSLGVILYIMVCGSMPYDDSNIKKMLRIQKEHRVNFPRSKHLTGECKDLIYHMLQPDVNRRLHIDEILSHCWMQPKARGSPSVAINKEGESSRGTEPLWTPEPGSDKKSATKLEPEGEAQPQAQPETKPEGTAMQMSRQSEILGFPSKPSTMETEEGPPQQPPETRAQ

JeKo-1 = assay: Inhibition of cell proliferation in human JeKo-1 cells upto 10 umol/L incubated for 72 hrs by DAPI staining based analysis; type: functional; conditions: dose <= 10.0 µmol/L
[20] = target: Interleukin-1 receptor-associated kinase 1 (Homo sapiens) (UniProt P51617); assay: Inhibition of IRAK1 (unknown origin) at 1 uM in presence of ATP relative to control; values are per cent of control
DU-145 = assay: Inhibition of cell proliferation in human DU-145 cells upto 10 umol/L incubated for 72 hrs by DAPI staining based analysis; type: functional; conditions: dose <= 10.0 µmol/L
[21] = target: Fibroblast growth factor receptor 3 (Homo sapiens) (UniProt P22607); assay: Inhibition of FGFR3 (unknown origin) at 1 uM in presence of ATP relative to control; values are per cent of control

C[C@@H]1CCc2ncc(F)cc2[C@H]2CCCN2c2ccn3ncc(c3n2)C(=O)N1 [SELITRECTINIB]
residual activity [1]: 100%
AUC at 24 h [2]: 615 ng·h/mL
residual activity [3]: 138%
inhibition [4]: 15%
inhibition (AU565): inactive
inhibition (SK-N-DZ): inactive
residual activity [5]: 81.5%
residual activity [6]: 110%
inhibition (HT-1376): inactive
residual activity [7]: 131%
residual activity [8]: 120%
residual activity [9]: 118%
residual activity [10]: 105%
residual activity [11]: 110%
residual activity [12]: 102%
Activity (KM12): Active
residual activity [13]: 99.5%
residual activity [14]: 108%
inhibition (KPL-1): inactive
inhibition [15]: 12%
residual activity [16]: 106%
residual activity [17]: 112%
residual activity [18]: 125%
inhibition (SH-4): inactive
residual activity [19]: 99%
inhibition (JeKo-1): inactive
residual activity [20]: 106%
inhibition (DU-145): inactive
residual activity [21]: 119%
